Measurements reported in patent US20250026761A1, “DIAZABICYCLOOCTANE DERIVATIVES USEFUL AS MATRIX METALLOPROTEINASE INHIBITORS” (VASA THERAPEUTICS SPÓLKA Z OGRANICZONA ODPOWIEDZIALNOSCIA, priority 2021, published 2025).
pIC50: −log10 of the molar value.

Experiments:
Format in all cases: biochemical
MMP1 = biological target: T1, MMP1 (Homo sapiens, UniProt P03956); test: MMP-1 colorimetric inhibition assay (Enzo kit); details: colorimetric thiopeptide substrate, absorbance 415 nm; read-out: MMP1 IC50 class
T1 construct: purchased Enzo Life Sciences, Inc. BML-AK404
T1 sequence (P03956 100-469): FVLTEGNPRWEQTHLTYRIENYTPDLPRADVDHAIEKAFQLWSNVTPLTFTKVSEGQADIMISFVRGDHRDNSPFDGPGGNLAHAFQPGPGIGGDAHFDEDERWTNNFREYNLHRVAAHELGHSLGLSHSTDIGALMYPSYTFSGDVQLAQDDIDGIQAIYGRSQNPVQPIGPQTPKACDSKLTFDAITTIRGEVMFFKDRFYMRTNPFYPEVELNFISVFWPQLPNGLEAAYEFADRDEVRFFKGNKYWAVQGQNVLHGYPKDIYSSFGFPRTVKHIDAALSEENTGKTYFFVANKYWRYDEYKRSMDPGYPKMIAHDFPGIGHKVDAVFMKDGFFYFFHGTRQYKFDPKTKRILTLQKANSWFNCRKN
Procedure: (§1) The inhibitory activities of the compounds of the invention were assessed in 96-well microplate format using MMP1, MMP2, MMP9 and MMP13 colorimetric assay kits and TACE fluorometric assay kit from Enzo Life Sciences, Inc. The inhibitory effect of the compounds of the invention on ADAM10 activity were evaluated in 96-well microplate format using fluorometric assay from AnaSpec, Inc.
(§2) The MMP-1 Colorimetric Drug Discovery Kit (catalog #BML-AK404) is a complete assay system designed to screen inhibitors of matrix metalloproteinase-1 using a thiopeptide as a chromogenic substrate (Ac-PLG-[2-mercapto-4-methylpentanoyl]-LG-OC2H5). The MMP cleavage site peptide bond is replaced by a thioester bond in the thiopeptide. Hydrolysis of this bond by an MMP produces a sulfhydryl group, which reacts with DTNB [5,5′-dithiobis(2-nitrobenzoic acid), Ellman's reagent] to form 2-nitro-5-thiobenzoic acid, that can be detected spectrophotometrically.
(§3) The inhibitory activities of the compounds of the invention against MMP1, MMP2, MMP9 and MMP13 were tested according to the manufacturer's assay protocols and the absorbance at 415 nm was monitored using the Tecan Infinite® 200 Pro F Nano^+ microplate reader.
(§4) The normalized values were analyzed using GraphPadPrism 9 for Windows (GraphPad Software, San Diego, CA, USA) software by plotting inhibition curves and determining the IC50 values.
(§5) The calculated IC50 values were divided into the following classes: • A: <50 nM; B: 50-1000 nM; C: >1000-10,000 nM; D: >10,000 nM

TACE (ADAM17) = biological target: T2, TACE (ADAM17) (Homo sapiens, UniProt P78536); test: TACE fluorometric inhibition assay (Enzo kit); details: quenched fluorogenic peptide, ex/em 320 nm/420 nm; read-out: TACE IC50 class
T2 construct: purchased Enzo Life Sciences, Inc. BML-AK310
T2 sequence (P78536 223-474 limits assumed): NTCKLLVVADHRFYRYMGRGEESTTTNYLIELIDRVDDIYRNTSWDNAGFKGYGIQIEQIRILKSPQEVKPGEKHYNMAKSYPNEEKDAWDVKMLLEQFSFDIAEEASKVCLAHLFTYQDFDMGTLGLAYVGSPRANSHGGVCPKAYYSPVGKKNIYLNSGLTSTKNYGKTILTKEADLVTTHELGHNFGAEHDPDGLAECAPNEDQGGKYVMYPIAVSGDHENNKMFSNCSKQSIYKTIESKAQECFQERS
Procedure: as §1
The TACE Fluorometric Drug Discovery Kit (catalog #BML-AK310) is a complete assay system designed to screen ADAM17 (TACE) inhibitors using a quenched fluorogenic peptide: Mca-PLAQAV-Dpa-RSSSR-NH2. Mca fluorescence is quenched by the Dpa group until cleavage by proteases separates the two moieties leading to an increase in Mca fluorescence.
The inhibitory activity of the compounds of the invention against TACE was tested according to the manufacturer's assay protocol and the fluorescence was monitored at excitation/emission wavelengths=320 nm/420 nm using Tecan Infinite® 200 Pro F Nano^+ microplate reader.
as §4, §5

MMP2 = biological target: T3, MMP2 (Homo sapiens, UniProt P08253); test: MMP-2 colorimetric inhibition assay (Enzo kit); details: colorimetric thiopeptide substrate, absorbance 415 nm; read-out: MMP2 IC50 class
T3 construct: purchased Enzo Life Sciences, Inc. BML-AK408
T3 sequence (P08253 110-452 limits assumed): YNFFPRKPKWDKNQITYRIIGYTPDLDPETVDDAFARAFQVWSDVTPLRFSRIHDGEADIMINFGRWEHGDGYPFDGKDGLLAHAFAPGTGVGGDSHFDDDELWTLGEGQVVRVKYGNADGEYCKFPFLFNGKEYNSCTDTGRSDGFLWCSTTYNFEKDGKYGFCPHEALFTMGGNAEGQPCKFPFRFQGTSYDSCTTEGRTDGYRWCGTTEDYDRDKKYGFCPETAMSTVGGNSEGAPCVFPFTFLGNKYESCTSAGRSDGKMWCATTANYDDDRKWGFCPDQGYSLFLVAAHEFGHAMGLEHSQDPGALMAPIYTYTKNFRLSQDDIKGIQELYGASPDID
Procedure: as §1
as §2, with “MMP-2” for “MMP-1”, “#BML-AK408)” for “#BML-AK404)”, “screen MMP-2” for “screen”, “inhibitors” for “inhibitors of matrix metalloproteinase-1”
as §3, §4, §5

MMP13 = biological target: T4, MMP13 (Homo sapiens, UniProt P45452); test: MMP-13 colorimetric inhibition assay (Enzo kit); details: colorimetric thiopeptide substrate, absorbance 415 nm; read-out: MMP13 IC50 class
T4 construct: purchased Enzo Life Sciences, Inc. BML-AK412
Procedure: as §1
as §2, with “MMP-13” for “MMP-1”, “#BML-AK412)” for “#BML-AK404)”, “metalloproteinase-13” for “metalloproteinase-1”
as §3, §4, §5

MMP9 = biological target: T5, MMP9 (Homo sapiens, UniProt P14780); test: MMP-9 colorimetric inhibition assay (Enzo kit); details: colorimetric thiopeptide substrate, absorbance 415 nm; read-out: MMP9 IC50 class
T5 construct: purchased Enzo Life Sciences, Inc. BML-AK410
T5 sequence (P14780 94-707): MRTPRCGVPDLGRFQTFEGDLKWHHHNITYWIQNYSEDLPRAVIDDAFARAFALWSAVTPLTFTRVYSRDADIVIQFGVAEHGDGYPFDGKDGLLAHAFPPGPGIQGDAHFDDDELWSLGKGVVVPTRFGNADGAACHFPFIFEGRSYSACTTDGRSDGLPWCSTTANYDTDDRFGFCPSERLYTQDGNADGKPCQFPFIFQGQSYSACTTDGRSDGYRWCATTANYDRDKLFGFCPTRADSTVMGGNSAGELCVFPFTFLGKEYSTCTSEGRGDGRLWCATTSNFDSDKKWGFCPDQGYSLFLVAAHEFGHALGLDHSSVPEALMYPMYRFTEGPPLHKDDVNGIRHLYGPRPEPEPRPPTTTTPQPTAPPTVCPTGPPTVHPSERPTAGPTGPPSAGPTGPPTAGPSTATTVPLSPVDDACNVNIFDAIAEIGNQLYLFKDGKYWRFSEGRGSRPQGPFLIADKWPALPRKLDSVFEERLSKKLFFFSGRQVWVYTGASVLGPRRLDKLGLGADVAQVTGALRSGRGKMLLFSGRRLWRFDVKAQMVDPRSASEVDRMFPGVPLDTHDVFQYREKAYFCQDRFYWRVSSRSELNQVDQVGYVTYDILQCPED
Procedure: as §1
as §2, with “MMP-9” for “MMP-1”, “#BML-AK410)” for “#BML-AK404)”, “metalloproteinase-9” for “metalloproteinase-1”
as §3, §4, §5

pIC50 (MMP1)	pIC50 (TACE (ADAM17))	pIC50 (MMP2)	pIC50 (MMP13)	pIC50 (MMP9)	Structure (SMILES)
< 5.00	< 5.00	5.00 to 6.00	5.00 to 6.00	5.00 to 6.00	COCCOC(=O)N1CC2CCC(C(=O)NO)(C1)N2S(=O)(=O)N1CCN(Cc2ccc(F)cc2)CC1 (stereo not drawn) [Example 22, 2-methoxyethyl 8-((4-(4-fluorobenzyl)piperazin-1-yl)sulfonyl)-1-(hydroxycarbamoyl)-3,8-diazabicyclo[3.2.1]octane-3-carboxylate]
5.00 to 6.00	5.00 to 6.00	> 7.30	> 7.30	> 7.30	COCCOC(=O)N1CC2CCC(C(=O)NO)(C1)N2S(=O)(=O)N1CCC(Oc2ccc(Cl)cc2)CC1 (stereo not drawn) [Example 19, 2-methoxyethyl 8-((4-(4-chlorophenoxy)piperidin-1-yl)sulfonyl)-1-(hydroxycarbamoyl)-3,8-diazabicyclo[3.2.1]octane-3-carboxylate]
< 5.00	< 5.00	> 7.30	6.00 to 7.30	6.00 to 7.30	COCCOC(=O)N1CC2CCC(C(=O)NO)(C1)N2S(=O)(=O)N1CCC(Oc2ccncc2)CC1 (stereo not drawn) [Example 21, 2-methoxyethyl 1-(hydroxycarbamoyl)-8-((4-(pyridin-4-yloxy)piperidin-1-yl)sulfonyl)-3,8-diazabicyclo[3.2.1]octane-3-carboxylate]
5.00 to 6.00	5.00 to 6.00	6.00 to 7.30	6.00 to 7.30	> 7.30	COCCOC(=O)N1CC2CCC(C(=O)NO)(C1)N2S(=O)(=O)c1ccc(Oc2ccc(F)cc2)nc1 (stereo not drawn) [Example 13, 2-methoxyethyl 8-((6-(4-fluorophenoxy)pyridin-3-yl)sulfonyl)-1-(hydroxycarbamoyl)-3,8-diazabicyclo[3.2.1]octane-3-carboxylate]
< 5.00	< 5.00	> 7.30	> 7.30	> 7.30	COCCOC(=O)N1CC2CCC(C(=O)NO)(C1)N2S(=O)(=O)c1ccc(Oc2ccc(F)cc2)c(F)c1 (stereo not drawn) [Example 5, 2-methoxyethyl 8-((3-fluoro-4-(4-fluorophenoxy)phenyl)sulfonyl)-1-(hydroxycarbamoyl)-3,8-diazabicyclo[3.2.1]octane-3-carboxylate]
< 5.00	< 5.00	6.00 to 7.30	6.00 to 7.30	6.00 to 7.30	COCCOC(=O)N1CC2CCC(C(=O)NO)(C1)N2S(=O)(=O)N1CCC(Oc2ccc(F)cn2)CC1 (stereo not drawn) [Example 20, 2-methoxyethyl 8-((4-((5-fluoropyridin-2-yl)oxy)piperidin-1-yl)sulfonyl)-1-(hydroxycarbamoyl)-3,8-diazabicyclo[3.2.1]octane-3-carboxylate]
